Data published in US20100086529A1, “METHODS OF MAKING CONCENTRATED FIBRINOGEN- AND PLATELET-CONTAINING COMPOSITIONS” (priority 2008, published 2010).

Key:
[1] = Clottability of precipitated fibrinogen with bovine thrombin (ELISA of clot supernatant, by difference); type: biochemical, human; details: blood collected into heparin 2 U/mL
Experimental: The clottability of the recovered fibrinogen is evaluated as follows. A fibrinogen solution as prepared in Example 3 is prepared and used. To 1 mL of the fibrinogen solution 100 μL of bovine thrombin (Vital Products, Inc, Boynton Beach, Fla., 500 Units/mL) is added and the clot is allowed to stand for 30 minutes at 22° C. The clot is then centrifuged for 2 min at 3500 g and the supernatant removed. The amounts of fibrinogen present in the concentrated composition and in the clot supernatant are determined by ELISA, and the fibrinogen present in the clot is determined by difference. […] The amounts of fibrinogen and Factor XIII in the clot supernatant and in the concentrate can be measured with ELISA, and the amounts of fibrinogen and Factor XIII remaining in the clot can be determined by difference.

[2] = molecular target: T1, fibrinogen (Homo sapiens, UniProt P02671+P02675+P02679); test: Fibrinogen precipitation from plasma by protamine (recovery in the concentrate, ELISA / Clauss method); details: n=4
T1 construct: Fibrinogen is precipitated from pooled human plasma by addition of protamine sulfate; from tissue; host or cells: human blood plasma (pooled human plasma / platelet-poor plasma of healthy adult donors)
T1 sequence (P02671 20-629 limits assumed): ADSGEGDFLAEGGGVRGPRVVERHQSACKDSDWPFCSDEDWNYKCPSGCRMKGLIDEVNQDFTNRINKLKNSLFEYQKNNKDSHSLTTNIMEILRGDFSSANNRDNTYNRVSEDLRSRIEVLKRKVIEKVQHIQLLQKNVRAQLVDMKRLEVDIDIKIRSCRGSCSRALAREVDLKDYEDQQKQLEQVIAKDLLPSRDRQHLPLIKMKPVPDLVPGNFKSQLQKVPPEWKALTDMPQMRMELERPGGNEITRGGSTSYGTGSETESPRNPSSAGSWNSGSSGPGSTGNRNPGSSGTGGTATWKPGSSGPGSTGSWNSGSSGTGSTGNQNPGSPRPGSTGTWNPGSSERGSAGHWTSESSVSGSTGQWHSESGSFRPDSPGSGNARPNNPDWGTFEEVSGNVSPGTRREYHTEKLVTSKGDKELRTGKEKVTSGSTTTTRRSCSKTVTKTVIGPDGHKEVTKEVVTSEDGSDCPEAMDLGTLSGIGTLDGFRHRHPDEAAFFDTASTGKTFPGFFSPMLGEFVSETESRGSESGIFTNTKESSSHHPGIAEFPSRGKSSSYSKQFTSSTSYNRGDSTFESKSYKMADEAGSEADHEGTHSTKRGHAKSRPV
T1 sequence (P02675 31-491): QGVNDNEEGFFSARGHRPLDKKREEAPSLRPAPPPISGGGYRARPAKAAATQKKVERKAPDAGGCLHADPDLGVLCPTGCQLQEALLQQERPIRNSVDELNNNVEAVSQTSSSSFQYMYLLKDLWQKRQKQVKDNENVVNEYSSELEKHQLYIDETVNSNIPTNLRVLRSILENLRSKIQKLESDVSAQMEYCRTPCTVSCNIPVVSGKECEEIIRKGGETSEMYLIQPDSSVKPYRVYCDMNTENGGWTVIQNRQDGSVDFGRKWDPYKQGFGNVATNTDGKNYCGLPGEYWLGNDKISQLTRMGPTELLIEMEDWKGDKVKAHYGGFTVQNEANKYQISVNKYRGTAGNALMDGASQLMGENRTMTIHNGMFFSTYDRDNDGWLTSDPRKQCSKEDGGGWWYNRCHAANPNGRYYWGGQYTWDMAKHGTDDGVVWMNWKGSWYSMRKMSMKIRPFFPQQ
T1 sequence (P02679 27-453): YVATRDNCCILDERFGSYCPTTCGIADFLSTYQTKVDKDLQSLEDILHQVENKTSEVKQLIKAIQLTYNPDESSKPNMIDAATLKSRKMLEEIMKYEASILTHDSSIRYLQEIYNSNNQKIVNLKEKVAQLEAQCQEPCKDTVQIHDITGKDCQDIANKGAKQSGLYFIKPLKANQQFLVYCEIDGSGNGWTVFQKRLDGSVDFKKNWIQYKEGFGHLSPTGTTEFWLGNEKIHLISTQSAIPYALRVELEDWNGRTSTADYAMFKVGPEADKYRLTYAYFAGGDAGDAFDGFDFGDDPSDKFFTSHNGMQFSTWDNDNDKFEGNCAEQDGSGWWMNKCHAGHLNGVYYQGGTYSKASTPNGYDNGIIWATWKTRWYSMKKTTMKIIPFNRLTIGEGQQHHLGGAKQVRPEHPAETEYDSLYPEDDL
Experimental: Fibrinogen is precipitated from pooled human plasma by addition of protamine sulfate (Sigma Chemical Co.). The protamine sulfate is used to prepare a stock solution of 40 mg/mL. The protamine is then added to the plasma (final concentration=10 mg/mL), mixed, and then centrifuged at 1000 g for 5 min to sediment the precipitate. The plasma is then decanted, and the remaining precipitate is dissolved in 0.2 M sodium citrate (37° C., pH 7.4).
A concentrated fibrinogen solution is prepared as in Example 3. The fibrinogen and Factor XIII concentrations are evaluated with an enzyme-linked immunosorbent assay (ELISA; AssayPro LLC, Brooklyn, N.Y.). The color intensity of the developed ELISA plates is measured with a Dynex MRX microplate reader (Dynex Technologies, Chantilly, Va.) and compared to a standard curve.
The fibrinogen concentration in the plasma is measured with the Clauss method, where plasma samples are clotted in the presence of excess thrombin in a CoaData 2000 Fibrintimer (Labor GmbH, Hamburg, Germany). The clotting times are recorded, and the fibrinogen concentration is calculated from a standard curve. […]
Heparin is used clinically in most procedures requiring anticoagulation. Heparin is evaluated for its effect on fibrinogen and Factor XIII harvesting and subsequent clotting of harvested fibrinogen. […]

[3] = Tensile strength of fibrin clots (dog-bone mold, Instron); details: 15 mg/mL fibrinogen concentrate, calcium chloride 1.8 to 100 mM tested
Experimental: The tensile strength of fibrin clots is tested. […] The narrow neck provided the weakest point where the clot would break; the force at which the clot breaks serves as an indication of its tensile strength.
Test samples are prepared by simultaneously emptying syringes of fibrinogen and thrombin into a common duct where the mixture entered the mold through the sponge on one end and exited through the sponge on the other end. […] After the sample is given time to “cure,” (30 minutes unless various cure times were being tested), the plexiglass mold is dissembled, and the clot is transferred to an Instron Model 1120 Universal Testing Instrument (Instron Corp., Norwood, Mass., max load 500 g) where it is held on the ends via the sponge “grips”. A stress-strain curve is recorded while the sample is strained at 100 mm/min until it ruptured. The tensile strength is recorded as the maximum stress sustained.
Samples are prepared from a 15 mg/mL pure fibrinogen concentrate (as prepared in Example 4) as follows:
The effect of cure time on tensile strength and adhesion strength is evaluated by allowing the molded clots and the glued aortic strips (described in Example 9) to cure for 1, 5, 10, 15, 30, and 60 minutes at 22° C.
Controls of pooled human plasma (fibrinogen concentration ˜3 mg/mL), pure fibrinogen (15 mg/mL), and Tisseel (average fibrinogen concentration ˜95 mg/mL) are used. […]

[4] = Adhesion strength of fibrin clots between strips of aortic tissue (Instron); details: 15 mg/mL fibrinogen concentrate, calcium chloride 1.8 to 100 mM tested
Experimental: The adhesive strength of fibrin clots is tested. The adhesion strength of the fibrin glue is assessed by sandwiching the fibrin glue between two strips of aortic tissue and then pulling them apart, simulating the performance of the sealant bonding to tissue. Bovine aorta is prepared by slitting the aorta lengthwise and laying it flat. The aorta is then cut into smaller strips, each approximately 3 cm long and 1 cm wide. […] Sealant is applied (0.1 mL), covering an area of approximately 1 cm^2, to the exposed media as shown. An overlapping joint is formed (approximately one-third the length of each strip) and allowed to “cure” while held in place with a 100 g weight for 30 minutes at 22° C. The non-overlapping ends of the cured samples are clamped in an Instron Model 1120 Universal Testing Instrument (max load 500 g), and a stress-strain curve is recorded while the sample is strained at 100 mm/min until the overlapping (glued) joint failed. Adhesion strength is taken as the maximum stress sustained divided by the joint area (indicated by the glue still visible after the joint failed and measured with a digital caliper).
The effect of cure time on tensile strength and adhesion strength is evaluated by allowing the molded clots and the glued aortic strips (described in Example 9) to cure for 1, 5, 10, 15, 30, and 60 minutes at 22° C. […]

Compound: heparin
- change in clottability of fibrinogen when heparin is present [1]: no observed changes

Compound: protamine sulfate
- fibrinogen in the plasma precipitated (maximum yield) ([2]; blood collected into heparin 2 U/mL, protamine 11 mg/mL in plasma): 95±1%
- fibrinogen precipitated and recovered (percentage of fibrinogen in the original plasma) ([2]; blood or plasma protamine concentration of 10 mg/mL): 96±4%

Compound: [Ca+2].[Cl-].[Cl-] [calcium chloride]
- calcium concentration giving maximum tensile strength [3]: 8.9 to 50 mM
- calcium concentration giving maximum adhesion strength [4]: 3.6 to 100 mM
